From the NIST ThermoML archive (doi:10.1021/acs.jced.8b00176)

Assay: xn = mol fraction of the nth substance listed
Conditions: 100 kPa, Liquid; for viscosity: Falling or rolling sphere viscometry; for speed of sound: Frequency=3 MHz, Single path-length method; for mass density: Vibrating tube method

CCCCn1cc[n+](C)c1.O=S(=O)([O-])C(F)(F)F [1-butyl-3-methylimidazolium trifluoromethanesulfonate] + CN(C)C=O
Conditions | mass density [kg/m3] | speed of sound [m/s] | viscosity [mPa·s]
298.15 K, x1 = 0.1087 | 1042.02 | 1449.2 | 1.8
298.15 K, x1 = 0.203 | 1099.89 | 1437.7 | 3.67
298.15 K, x1 = 0.2978 | 1142.86 | 1425.7 | 5.22
298.15 K, x1 = 0.409 | 1181.65 | 1415 | 8.68
298.15 K, x1 = 0.4969 | 1206.07 | 1409.2 | 13.24
298.15 K, x1 = 0.603 | 1230.69 | 1403 | 20.91
298.15 K, x1 = 0.699 | 1249.54 | 1399.1 | 32.59
298.15 K, x1 = 0.809 | 1268.59 | 1396.7 | 52.15
298.15 K, x1 = 0.8928 | 1281.63 | 1395 | 68.08
298.15 K, x1 = 1 | 1297.46 | 1393.2 | 82.38
303.15 K, x1 = 0.1087 | 1037.25 | 1432.1 | 1.67
303.15 K, x1 = 0.203 | 1095.22 | 1421.9 | 3.23
303.15 K, x1 = 0.2978 | 1138.3 | 1410.9 | 4.67
303.15 K, x1 = 0.409 | 1177.22 | 1401.2 | 7.62
303.15 K, x1 = 0.4969 | 1201.73 | 1396 | 11.4
303.15 K, x1 = 0.603 | 1226.44 | 1390.5 | 17.79
303.15 K, x1 = 0.699 | 1245.37 | 1387 | 27.14
303.15 K, x1 = 0.809 | 1264.5 | 1384.8 | 42.41
303.15 K, x1 = 0.8928 | 1277.59 | 1383.5 | 54.9
303.15 K, x1 = 1 | 1293.46 | 1382.8 | 66.69
308.15 K, x1 = 0.1087 | 1032.47 | 1415.2 | 1.55
308.15 K, x1 = 0.203 | 1090.53 | 1406 | 2.93
308.15 K, x1 = 0.2978 | 1133.72 | 1395.9 | 4.2
308.15 K, x1 = 0.409 | 1172.78 | 1387.2 | 6.73
308.15 K, x1 = 0.4969 | 1197.38 | 1382.9 | 9.92
308.15 K, x1 = 0.603 | 1222.2 | 1378.1 | 15.23
308.15 K, x1 = 0.699 | 1241.2 | 1375 | 22.89
308.15 K, x1 = 0.809 | 1260.4 | 1373.3 | 35.16
308.15 K, x1 = 0.8928 | 1273.54 | 1372.1 | 44.83
308.15 K, x1 = 1 | 1289.47 | 1371.7 | 52.86
313.15 K, x1 = 0.1087 | 1027.69 | 1398.1 | 1.44
313.15 K, x1 = 0.203 | 1085.84 | 1390.4 | 2.64
313.15 K, x1 = 0.2978 | 1129.15 | 1381.4 | 3.81
313.15 K, x1 = 0.409 | 1168.33 | 1373.6 | 6.01
313.15 K, x1 = 0.4969 | 1193.03 | 1369.7 | 8.71
313.15 K, x1 = 0.603 | 1217.94 | 1365.6 | 13.22
313.15 K, x1 = 0.699 | 1237.03 | 1363 | 19.53
313.15 K, x1 = 0.809 | 1256.31 | 1361.7 | 29.38
313.15 K, x1 = 0.8928 | 1269.5 | 1360.9 | 37.11
313.15 K, x1 = 1 | 1285.47 | 1360.7 | 43.67
318.15 K, x1 = 0.1087 | 1022.88 | 1381.2 | 1.34
318.15 K, x1 = 0.203 | 1081.13 | 1375 | 2.4
318.15 K, x1 = 0.2978 | 1124.56 | 1367 | 3.47
318.15 K, x1 = 0.409 | 1163.87 | 1360.1 | 5.41
318.15 K, x1 = 0.4969 | 1188.67 | 1356.8 | 7.74
318.15 K, x1 = 0.603 | 1213.69 | 1353.3 | 11.6
318.15 K, x1 = 0.699 | 1232.85 | 1351.2 | 16.84
318.15 K, x1 = 0.809 | 1252.21 | 1350.3 | 24.86
318.15 K, x1 = 0.8928 | 1265.45 | 1349.7 | 31.09
318.15 K, x1 = 1 | 1281.47 | 1349.9 | 36.29
323.15 K, x1 = 0.1087 | 1018.08 | 1364.5 | 1.26
323.15 K, x1 = 0.203 | 1076.42 | 1359.6 | 2.2
323.15 K, x1 = 0.2978 | 1119.97 | 1352.6 | 3.17
323.15 K, x1 = 0.409 | 1159.41 | 1346.7 | 4.88
323.15 K, x1 = 0.4969 | 1184.31 | 1344 | 6.89
323.15 K, x1 = 0.603 | 1209.43 | 1341.1 | 10.21
323.15 K, x1 = 0.699 | 1228.67 | 1339.5 | 14.64
323.15 K, x1 = 0.809 | 1248.11 | 1339.1 | 21.29
323.15 K, x1 = 0.8928 | 1261.4 | 1338.7 | 26.39
323.15 K, x1 = 1 | 1277.48 | 1338.8 | 30.57
